Assay results from ChEMBL document CHEMBL1141122, “Receptor flexibility in de novo ligand design and docking” (J Med Chem, 2005).
pIC50, pKi: −log10 of the molar value.

How the values were obtained:
Interstitial collagenase [1] = target: T1, Interstitial collagenase (Homo sapiens, UniProt P03956); assay: Inhibitory concentration against (MMP-1) matrix metalloprotease-1
T1 sequence (P03956 whole entry): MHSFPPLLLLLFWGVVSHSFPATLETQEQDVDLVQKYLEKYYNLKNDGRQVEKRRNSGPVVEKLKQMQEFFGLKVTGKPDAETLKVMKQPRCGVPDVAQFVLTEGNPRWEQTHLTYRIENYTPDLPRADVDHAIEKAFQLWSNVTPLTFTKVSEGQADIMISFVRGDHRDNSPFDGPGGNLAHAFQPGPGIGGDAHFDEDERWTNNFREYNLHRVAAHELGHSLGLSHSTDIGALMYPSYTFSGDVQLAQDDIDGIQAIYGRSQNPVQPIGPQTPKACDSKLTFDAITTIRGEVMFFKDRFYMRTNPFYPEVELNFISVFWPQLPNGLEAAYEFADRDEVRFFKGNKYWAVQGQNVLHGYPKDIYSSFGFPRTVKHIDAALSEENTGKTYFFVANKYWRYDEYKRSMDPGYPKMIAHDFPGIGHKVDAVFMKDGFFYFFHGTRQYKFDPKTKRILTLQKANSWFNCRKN

Interstitial collagenase [2] = target: T1, Interstitial collagenase; assay: Binding affinity towards (MMP-1) matrix metalloprotease-1

## O=C1CC=C2C=CC=C(S(=O)(=O)NCC(=O)NO)N2C1
Interstitial collagenase [1]
  pIC50: 8.89

## O=C(CCS(=O)(=O)c1ccc(C(F)(F)F)cc1)NO
Interstitial collagenase [2]
  pKi: 8.52

## O=C(CNS(=O)(=O)c1ccc(Oc2ccc(Cl)cc2)cc1)NO
Interstitial collagenase [2]
  pKi: 7.15

## O=C(CCS(=O)(=O)c1ccc(Oc2ccncc2)cc1)NO
Interstitial collagenase [2]
  pKi: 8.09

## O=C(CCC(=O)N1CCC(Oc2ccc(-n3ccnc3)cc2)CC1)NO
Interstitial collagenase [2]
  pKi: 6.65

## COc1ccc(S(=O)(=O)CCC(=O)NO)cc1
Interstitial collagenase [2]
  pKi: 7.48

## O=C(CCS(=O)(=O)c1ccc(Oc2ccccc2)cc1)NO
Interstitial collagenase [1]
  pIC50: 7.66

## O=C(CNC(=O)c1ccc(Oc2ccc(Cl)cc2)cc1)NO
Interstitial collagenase [2]
  pKi: 7.15

## CCCCOc1ccc(C(=O)NCC(=O)NO)cc1
Interstitial collagenase [1]
  pIC50: 6.04

## CC#COc1ccc(C(=O)NCC(=O)NO)cc1
Interstitial collagenase [1]
  pIC50: 6.92

## Cc1cc(F)ccc1COc1ccc(C(=O)NCC(=O)NO)cc1
Interstitial collagenase [1]
  pIC50: 8.00

## CCCCOc1ccc(S(=O)(=O)NCC(=O)NO)cc1
Interstitial collagenase [1]
  pIC50: 6.04

## O=C(CCC(=O)c1ccc(Oc2ccncc2)cc1)NO
Interstitial collagenase [2]
  pKi: 8.09

## CCCCOc1ccc(S(=O)(=O)CCC(=O)NO)cc1
Interstitial collagenase [1]
  pIC50: 6.04

## O=C(CNC(=O)c1ccc(Oc2ccccc2)cc1)NO
Interstitial collagenase [1]
  pIC50: 7.66

## O=C(CCC(=O)c1ccc(C(F)(F)F)cc1)NO
Interstitial collagenase [2]
  pKi: 8.52

## Cc1cc(F)ccc1COc1ccc(C(=O)CCC(=O)NO)cc1
Interstitial collagenase [1]
  pIC50: 8.00

## O=C(CNS(=O)(=O)c1ccc(Oc2ccccc2)cc1)NO
Interstitial collagenase [1]
  pIC50: 7.66

## CCCCOc1ccc(C(=O)CCC(=O)NO)cc1
Interstitial collagenase [1]
  pIC50: 6.04

## O=C1CC=C2C=CC=C(C(=O)NCC(=O)NO)N2C1
Interstitial collagenase [1]
  pIC50: 8.89

## Cc1cc(F)ccc1COc1ccc(S(=O)(=O)NCC(=O)NO)cc1
Interstitial collagenase [1]
  pIC50: 8.00

## O=C1CC=C2C=CC=C(C(=O)CCC(=O)NO)N2C1
Interstitial collagenase [1]
  pIC50: 8.52

## Cc1cc(F)ccc1COc1ccc(S(=O)(=O)CCC(=O)NO)cc1
Interstitial collagenase [1]
  pIC50: 8.00

## O=C(CCS(=O)(=O)N1CCC(Oc2ccc(-n3ccnc3)cc2)CC1)NO
Interstitial collagenase [2]
  pKi: 6.65

## O=C(CNC(=O)c1ccc(Oc2ccncc2)cc1)NO
Interstitial collagenase [2]
  pKi: 8.09

## CC#COc1ccc(S(=O)(=O)NCC(=O)NO)cc1
Interstitial collagenase [1]
  pIC50: 6.92

## O=C1CC=C2C=CC=C(S(=O)(=O)CCC(=O)NO)N2C1
Interstitial collagenase [1]
  pIC50: 8.89

## O=C(CNS(=O)(=O)c1ccc(Oc2ccncc2)cc1)NO
Interstitial collagenase [2]
  pKi: 8.09

## CC#COc1ccc(C(=O)CCC(=O)NO)cc1
Interstitial collagenase [1]
  pIC50: 6.92

## O=C(CCS(=O)(=O)c1ccc(Oc2ccc(Cl)cc2)cc1)NO
Interstitial collagenase [2]
  pKi: 7.15

## O=C(CNC(=O)N1CCC(Oc2ccc(-n3ccnc3)cc2)CC1)NO
Interstitial collagenase [2]
  pKi: 6.65

## O=C(CCC(=O)c1ccc(Oc2ccc(Cl)cc2)cc1)NO
Interstitial collagenase [2]
  pKi: 7.15

## O=C(CNS(=O)(=O)c1ccc(C(F)(F)F)cc1)NO
Interstitial collagenase [2]
  pKi: 8.52

## CC#COc1ccc(S(=O)(=O)CCC(=O)NO)cc1
Interstitial collagenase [1]
  pIC50: 6.92

## COc1ccc(C(=O)NCC(=O)NO)cc1
Interstitial collagenase [2]
  pKi: 7.48

## O=C(CNC(=O)c1ccc(C(F)(F)F)cc1)NO
Interstitial collagenase [2]
  pKi: 8.52

## COc1ccc(C(=O)CCC(=O)NO)cc1
Interstitial collagenase [2]
  pKi: 7.48

## O=C(CCC(=O)c1ccc(Oc2ccccc2)cc1)NO
Interstitial collagenase [1]
  pIC50: 7.66

## O=C(CNS(=O)(=O)N1CCC(Oc2ccc(-n3ccnc3)cc2)CC1)NO
Interstitial collagenase [2]
  pKi: 6.65
